The results in this text go back to patent US4342762A, “Basic ethers and pharmaceutical compositions containing the same” (Egyt Gyogyszervegyeszeti Gyar, priority 1979, dated 1982).

The test system of data set [1] is mice. The data set is described as follows: potentiating of hexobarbital-narcosis (Kaergaard). Type of data set: in vivo. To be noted: for ED50: Mus musculus, iv, 40 mg/kg hexobarbital i.v., positive: sleeping period at least 2.5 times control; for Potentiating of narcosis Th.I.: therapeutic index. On the procedure: (§1) The effect on the inhibition of the oriental activity (inhibition of the motility) was investigated on white mice in a Dews apparatus applied with 8 canals by the method of Borsy [Borsy, J., Csanyi, E., Lazar, I., Arc. Int. Pharmacodyn. 124, 1-2 (1960)]. After an oral pretreatment of 30 minutes the number of light-interruptions due to the movements of groups consisting of 3-3 mice was registered. The observation lasted for 30 minutes. The effect of the compounds exerted on the duration of hexobarbital-narcosis was tested by the method of Kaergaard [Kaergaard, N. C., Magnussen, M. P., Kampmann, E., Frey, H. H., Arc. Int. Pharmacodyn. 2, 170; (1967)]. Groups of animals consisting of 6-6 mice were treated.

Data set [2] in a line: acute oral toxicity, graphic method of Litchfield-Wilcoxon, 4 days observation. To be noted: mouse, in vivo. On the procedure: The analgesic effect of the new compounds according to the invention was determined by the method of Wirth et al. (Wirth, W., Gosswald, R., Horlein. K., Risse, Kl. H., Kreiskott, H.: Arch. Int. Pharmacodyn. 115, 1; (1958)). 0.4 ml of 0.5% acetic acid was administered i.p. to white mice, and the characteristic "writhing" reactions were counted after 5 minutes. […] The results are given in Table I. The toxicity data determined on white mice of both sexes weighing 18-24 g belonging to the strain CFLP are also given. Administration was effected with an oral dose of 20 ml/kg. After treatment the animals were kept under observation for 4 days. The toxicity data (LD50 mg/kg) were determined by the graphic method of Litchfield-Wilcoxon [Litchfield, J.T., Wilcoxon, E. W., J Pharmacol. Exp. Therap. 96, 99; (1949)].

The test system of data set [3] is white mice. The experiment in a line: analgesic effect, inhibition of acetic acid "writhing" reactions (Wirth et al.). To be noted: for ED50: Mus musculus, oral, 1 hour before i.p. 0.4 ml 0.5% acetic acid, read-out: Analgesic effect ED50; for Analgesic effect Therap.index: therapeutic index. Type of data set: in vivo. On the procedure: The analgesic effect of the new compounds according to the invention was determined by the method of Wirth et al. (Wirth, W., Gosswald, R., Horlein. K., Risse, Kl. H., Kreiskott, H.: Arch. Int. Pharmacodyn. 115, 1; (1958)). 0.4 ml of 0.5% acetic acid was administered i.p. to white mice, and the characteristic "writhing" reactions were counted after 5 minutes. The compounds to be tested had been orally administered an hour before the administration of the acetic acid. The activity is expressed as a percentage of the inhibition referred to the data observed on the control group. The results are given in Table I. The toxicity data determined on white mice of both sexes weighing 18-24 g belonging to the strain CFLP are also given. Administration was effected with an oral dose of 20 ml/kg. After treatment the animals were kept under observation for 4 days. The toxicity data (LD50 mg/kg) were determined by the graphic method of Litchfield-Wilcoxon [Litchfield, J.T., Wilcoxon, E. W., J Pharmacol. Exp. Therap. 96, 99; (1949)].
(In general: An intraperitoneal irritant provokes the stretching counted in writhing tests.)

Data set [4] has as its system white mice. The data set is described as follows: inhibition of motility, Dews apparatus (Borsy). Type of data set: in vivo. On the procedure:
as §1

Data set [5] has as its system white mice. The experiment in a line: inhibition of maximal electroshock (MES) (Swinyard et al.). Type of data set: in vivo. To be noted: for ED50: Mus musculus, oral, 1 hour before electroshock 50 Hz, 45 mA, 0.4 sec, total inhibition of tonic extensor convulsion; for Inhibition of MES Th. I.: therapeutic index. On the procedure:
(§2) The antiepileptic effect was investigated on white mice, after oral administration. The inhibition of maximal electroshock (MES) was determined by the method of Swinyard et al. [Swinyard et al. J. Pharmacol. Exp. Ther. 106, 319-330 (1952)]. White mice weighing 20-25 g were subjected to electric shock through corneal electrodes (Parameters: 50 Hz, 45 mA, 0.4 sec.). The total inhibition of the tonic extensor convulsion was considered as criterion of the anti-convulsive effect. The test-substance had been orally administered one hour before the electroshock. The inhibition of pentetrazole convulsion was determined on white mice by the modified method of Banziger and Hane [Banziger, R., Hane, L.D. Arch. Int. Pharmacodyn. 167, 245-249; (1967)]. I." stands for "therapeutic index."
(In general: In the maximal electroshock model the usual endpoint is tonic extension of the hind limbs.)

Data set [6] relates to white mice. The data set is described as follows: inhibition of pentetrazole convulsion (modified Banziger and Hane). The data set is classed as in vivo. To be noted: for ED50: Mus musculus, oral; for Inhibition of pentetrazole convulsion Th. I.: therapeutic index. On the procedure:
as §2

[7] abbreviates: oral, 20 ml/kg, both sexes 18-24 g, 4 days observation.

Structures are written as SMILES.

As usually defined, the ED50 is the midpoint of the dose-response relation. The term LD50 denotes the dose expected to kill half of the subjects tested. Regarding `CC(C)N(CCOC1(Cc2ccccc2)CC2CCC1(C)C2(C)C)C(C)C` (racemic) [Example 3, (±)-2-benzyl-2-(2'-diisopropylaminoethoxy)-1,7,7-trimethyl-bicyclo(2,2,1) heptane], in data set [1], the ED50 is 120 mg/kg and the “Potentiating of narcosis Th.I.” value turned out to be 10.4. Moreover, the 50% lethal dose (LD50) at 96 h in data set [2] (setting [7]) came to 1250 mg/kg. In addition, in data set [3], the ED50 is 120 mg/kg and the “Analgesic effect Therap.index” value is reported as 10.4.

For the compound `CC1(C)C2CCC1(C)C(Cc1ccccc1)(OCCCN1CCN(Cc3ccccc3)CC1)C2` (racemic) [Example 4], the LD50 at 96 h in data set [2] (setting [7]) turned out to be 2000 mg/kg. For the same compound, in data set [3], the 50% effective dose (ED50) stood at 200 mg/kg and the “Analgesic effect Therap.index” value is listed as 10.0.

For the compound `CN(C)CCCOC1(Cc2ccc(Cl)cc2)CC2CCC1(C)C2(C)C` (racemic) [Example 11, (±)-2-(p-chloro-benzyl)-2-(3'-dimethylaminopropoxy)-1,7,7-trimethyl-bicyclo(2,2,1)heptane], the ED50 in data set [4] (Mus musculus, oral pretreatment 30 minutes, observation 30 minutes) worked out at 130 mg/kg; in data set [1], 130 mg/kg; in data set [3], 75 mg/kg. The “Inhibition of motility Th.I.” value in data set [4] (therapeutic index, motility) turned out to be 11.5. Besides, the “Potentiating of narcosis Th.I.” value in data set [1] came to 11.5. This compound also returned an LD50 at 96 h in data set [2] (setting [7]) of 1500 mg/kg. Further, the “Analgesic effect Therap.index” value in data set [3] came out at 20.0.

Take `CCN(CC)CCOC1(Cc2ccc(Cl)cc2)CC2CCC1(C)C2(C)C` (racemic) [Example 12]: in data set [5], the 50% effect level (ED50) was put at a dose of 72 mg/kg and the “Inhibition of MES Th. I.” value came to 27.7. Further, in data set [1], the ED50 came out at 200 mg/kg and the “Potentiating of narcosis Th.I.” value is listed as 10.0. In addition, in data set [6], it took a dose of 110 mg/kg to reach the 50% effect level (ED50) and the “Inhibition of pentetrazole convulsion Th. I.” value was found to be 18.2. Also, the LD50 at 96 h in data set [2] (setting [7]) was 2000 mg/kg. In data set [3], the median effective dose (ED50) was 100 mg/kg and the “Analgesic effect Therap.index” value stood at 20.0.

As to `CN(C)CCCOC1(c2cccs2)CC2CCC1(C)C2(C)C` (racemic) [Example 18, (±)-2-(3'-dimethylaminopropoxy)-2-(2"-thienyl)-1,7,7-trimethyl-bicyclo(2,2,1)heptane], the LD50 at 96 h in data set [2] (po) amounted to 1400 mg/kg. Moreover, in data set [3], the ED50 is 140 mg/kg and the “Analgesic effect Therap.index” value came to 10.0.

For `CCN(CC)CCCOC1(c2ccccc2)CC2CCC1(C)C2(C)C` (racemic) [Example 16, (±)-2-(3-diethylaminopropoxy)-2-phenyl-1,7,7-trimethyl-bicyclo(2,2,1)heptane], in data set [5], the ED50 was found to be 30 mg/kg and the “Inhibition of MES Th. I.” value came to 23.3. Moreover, in data set [1], the ED50 stood at 20 mg/kg and the “Potentiating of narcosis Th.I.” value was 35.0. Besides, in data set [6], the ED50 was 60 mg/kg and the “Inhibition of pentetrazole convulsion Th. I.” value worked out at 11.7. Moreover, the LD50 at 96 h in data set [2] (setting [7]) was found to be 700 mg/kg. In addition, in data set [3], the ED50 was found to be 70 mg/kg and the “Analgesic effect Therap.index” value amounted to 10.0.

On to `CC(=O)Nc1ccc(O)cc1` [Paracetamole, N-(4-Hydroxyphenyl)-acetamide, reference compound], for which, in data set [3], the ED50 was found to be 180 mg/kg.

`CCN(CC)CCCOC1(c2cccs2)CC2CCC1(C)C2(C)C` (racemic) [Example 19, (±)-2-(3'-diethylaminopropoxy)-2-(2"-thienyl)-1,7,7-trimethyl-bicyclo(2,2,1)heptane]: in data set [1], the ED50 stood at 50 mg/kg and the “Potentiating of narcosis Th.I.” value amounted to 20.0. In data set [2] (po), this compound gave an LD50 at 96 h of 1000 mg/kg. Further, in data set [3], the 50% effective dose (ED50) was determined as 120 mg/kg and the “Analgesic effect Therap.index” value was determined as 8.3.

Regarding `CN1C(=O)OC(C)(C)C1=O` [Trimethadion, 3,5,5-Trimethyl-2,4-oxazolidinedione, reference compound], in data set [5], the 50% effect level (ED50) was put at a dose of 4.9 mg/kg and the “Inhibition of MES Th. I.” value came out at 4.3. Further, in data set [6], the ED50 amounted to 400 mg/kg and the “Inhibition of pentetrazole convulsion Th. I.” value was 5.3.
